{"source": "ChEMBL document CHEMBL2417511", "about": "“Probes for narcotic receptor mediated phenomena. 48. C7- and C8-substituted 5-phenylmorphan opioids from diastereoselective alkylation” (Eur J Med Chem, 2013)", "assay_type_in_all_cases": "cell-based", "key": {"[1]": {"target": "Kappa-type opioid receptor (Homo sapiens, UniProt P41145)", "sequence (P41145 whole entry)": "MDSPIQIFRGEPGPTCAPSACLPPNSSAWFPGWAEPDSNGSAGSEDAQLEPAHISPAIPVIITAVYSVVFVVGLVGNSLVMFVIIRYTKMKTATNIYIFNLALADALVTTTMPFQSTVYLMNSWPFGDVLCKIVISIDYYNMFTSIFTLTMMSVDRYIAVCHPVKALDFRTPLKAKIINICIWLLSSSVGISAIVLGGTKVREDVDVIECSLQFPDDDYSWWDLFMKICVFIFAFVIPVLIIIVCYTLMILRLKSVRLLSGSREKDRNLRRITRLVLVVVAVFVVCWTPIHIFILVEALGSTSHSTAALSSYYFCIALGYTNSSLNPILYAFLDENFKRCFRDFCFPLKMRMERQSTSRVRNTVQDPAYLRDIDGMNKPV", "test": "Displacement of [3H]U69,593 from human kappa opioid receptor expressed in CHO cells after 2 hrs by liquid scintillation counting"}, "[2]": {"target": "Delta-type opioid receptor (Homo sapiens, UniProt P41143)", "sequence (P41143 whole entry)": "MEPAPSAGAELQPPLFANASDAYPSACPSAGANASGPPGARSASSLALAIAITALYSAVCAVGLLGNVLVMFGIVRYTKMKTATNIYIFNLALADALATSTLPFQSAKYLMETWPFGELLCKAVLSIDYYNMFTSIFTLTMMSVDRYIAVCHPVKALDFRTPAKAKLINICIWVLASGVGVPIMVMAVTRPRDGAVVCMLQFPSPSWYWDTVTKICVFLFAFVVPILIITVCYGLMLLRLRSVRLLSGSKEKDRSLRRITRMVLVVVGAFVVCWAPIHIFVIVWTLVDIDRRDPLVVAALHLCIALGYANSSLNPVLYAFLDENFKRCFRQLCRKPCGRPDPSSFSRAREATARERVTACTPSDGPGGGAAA", "test": "Displacement of [3H]DADLE from human delta opioid receptor expressed in CHO cells after 2 hrs by liquid scintillation counting"}, "Mu-type opioid receptor": {"target": "Mu-type opioid receptor (Homo sapiens, UniProt P35372)", "sequence (P35372 whole entry)": "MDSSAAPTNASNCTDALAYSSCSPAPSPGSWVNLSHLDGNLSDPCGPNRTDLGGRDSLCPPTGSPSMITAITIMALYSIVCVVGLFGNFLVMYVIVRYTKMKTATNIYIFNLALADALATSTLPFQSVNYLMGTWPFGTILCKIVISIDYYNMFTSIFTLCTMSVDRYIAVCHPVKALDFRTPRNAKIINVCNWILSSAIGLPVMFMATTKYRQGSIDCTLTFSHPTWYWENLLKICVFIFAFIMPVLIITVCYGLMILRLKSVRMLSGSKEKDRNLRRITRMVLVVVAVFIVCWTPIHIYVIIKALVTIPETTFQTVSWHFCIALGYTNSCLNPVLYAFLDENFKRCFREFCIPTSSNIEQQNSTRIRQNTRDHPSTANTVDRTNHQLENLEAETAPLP", "test": "Displacement of [3H]DAMGO from human mu opioid receptor expressed in CHO cells after 2 hrs by liquid scintillation counting"}}, "data": [{"smiles": "CN1CC[C@]2(c3cccc(O)c3)C[C@H](O)C[C@@H]1C2", "values": [{"measurement": "Ki", "setting": "[1]", "value": 1230, "unit": "nM"}, {"measurement": "Ki", "setting": "[2]", "value": 1960, "unit": "nM"}, {"measurement": "Ki", "setting": "Mu-type opioid receptor", "value": 22, "unit": "nM"}]}]}
